Measured values as given in PubChem BioAssay (NCI).
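These data come from cells grown in 96-well plates and exposed to compound for 48 hours at five concentrations. GI50: concentration for 50% inhibition of growth. TGI marks complete inhibition of growth.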

Key:
Assay in all cases: NCI-60 cell line screen, 48 h; in the data active = GI50 below about 0.43 µM; inactive = the rest
[1] = system: 786-0 renal
[2] = system: A498 renal
[3] = system: A549 NSCLC
[4] = system: ACHN renal
[5] = system: BT-549 breast
[6] = system: CAKI-1 renal
[7] = system: CCRF-CEM leukemia
[8] = system: COLO 205 colon
[9] = system: DU-145 prostate
[10] = system: EKVX NSCLC
[11] = system: HCC-2998 colon
[12] = system: HCT-116 colon
[13] = system: HCT-15 colon
[14] = system: HL-60(TB) leukemia
[15] = system: HOP-62 NSCLC
[16] = system: HOP-92 NSCLC
[17] = system: HS 578T breast
[18] = system: HT29 colon
[19] = system: IGROV1 ovarian
[20] = system: K-562 leukemia
[21] = system: KM12 colon
[22] = system: M14 melanoma
[23] = system: MALME-3M melanoma
[24] = system: MCF7 breast
[25] = system: MDA-MB-231 breast
[26] = system: MDA-MB-435
[27] = system: MOLT-4 leukemia
[28] = system: NCI-H226 lung
[29] = system: NCI-H23 lung
[30] = system: NCI-H460 lung
[31] = system: NCI-H522 lung
[32] = system: NCI/ADR-RES ovarian
[33] = system: OVCAR-3 ovarian
[34] = system: OVCAR-4 ovarian
[35] = system: OVCAR-5 ovarian
[36] = system: OVCAR-8 ovarian
[37] = system: PC-3 prostate
[38] = system: RPMI-8226 leukemia
[39] = system: RXF 393 renal
[40] = system: SF-268 CNS
[41] = system: SF-295 CNS
[42] = system: SF-539 CNS
[43] = system: SK-MEL-2 melanoma
[44] = system: SK-MEL-28 melanoma
[45] = system: SK-MEL-5 melanoma
[46] = system: SK-OV-3 ovarian
[47] = system: SN12C renal
[48] = system: SNB-19 CNS
[49] = system: SNB-75 CNS
[50] = system: SR leukemia
[51] = system: SW-620 colon
[52] = system: T-47D breast
[53] = system: TK-10 renal
[54] = system: U251 CNS
[55] = system: UACC-257 melanoma
[56] = system: UACC-62 melanoma
[57] = system: UO-31 renal
[58] = system: LOX IMVI melanoma
[59] = system: MDA-N

CO[C@H](C(=O)[C@@H](O)[C@@H](C)O)[C@@H]1Cc2cc3cc(O[C@H]4C[C@@H](O[C@H]5C[C@@H](O)[C@H](O)C(C)O5)[C@H](O)C(C)O4)c(C)c(O)c3c(O)c2C(=O)[C@H]1O[C@H]1C[C@@H](O[C@H]2C[C@@H](O[C@H]3C[C@](C)(O)C(=O)C(C)O3)[C@@H](O)C(C)O2)[C@H](O)C(C)O1 (some centres not stated)
136 nM: TGI [45]
1070 nM: TGI [29]
147 nM: TGI [2]
224 nM: TGI [42]
17100 nM: TGI [1]
> 15700 nM: TGI [12]
active: GI50 [1] 101 nM | GI50 [2] 18.5 nM | GI50 [3] 106 nM | GI50 [4] 154 nM | GI50 [5] 35.6 nM | GI50 [7] 211 nM | GI50 [8] 53 nM | GI50 [9] 127 nM | GI50 [10] 168 nM | GI50 [11] 222 nM | GI50 [12] 44.4 nM | GI50 [15] 65.3 nM | GI50 [16] 85.2 nM | GI50 [17] 72.3 nM | GI50 [18] 85.2 nM | GI50 [19] 132 nM | GI50 [20] 100 nM | GI50 [21] 67.2 nM | GI50 [22] 120 nM | GI50 [23] 38.8 nM | GI50 [24] 20.8 nM | GI50 [25] 145 nM | GI50 [26] 64.6 nM | GI50 [27] 193 nM | GI50 [28] 45.7 nM | GI50 [29] 77.1 nM | GI50 [30] 32.3 nM | GI50 [31] 28.8 nM | GI50 [33] 90.7 nM | GI50 [34] 124 nM | GI50 [35] 115 nM | GI50 [36] 99.1 nM | GI50 [37] 151 nM | GI50 [38] 100 nM | GI50 [39] 51.5 nM | GI50 [40] 65 nM | GI50 [41] 82.8 nM | GI50 [42] 47.3 nM | GI50 [43] 59 nM | GI50 [44] 53 nM | GI50 [45] 38.5 nM | GI50 [46] 139 nM | GI50 [47] 93 nM | GI50 [48] 71.5 nM | GI50 [49] 45 nM | GI50 [50] 38.5 nM | GI50 [51] 75 nM | GI50 [52] 66.3 nM | GI50 [53] 210 nM | GI50 [54] 31 nM | GI50 [55] 99.5 nM | GI50 [56] 18.7 nM | GI50 [57] 159 nM
> 19100 nM: TGI [27]
1550 nM: TGI [4]
300 nM: TGI [28]
252 nM: TGI [26]
32200 nM: TGI [37]
9970 nM: TGI [25]
7040 nM: TGI [34]
6670 nM: TGI [21]
817 nM: TGI [22]
1720 nM: TGI [11]
280 nM: TGI [23]
> 22100 nM: TGI [35]
2270 nM: TGI [55]
1610 nM: TGI [38]
6120 nM: TGI [41]
inactive: GI50 [6] 924 nM | GI50 [13] 889 nM | GI50 [14] 592 nM | GI50 [32] 15300 nM
866 nM: TGI [18]
> 33200 nM: TGI [3] | TGI [6] | TGI [7] | TGI [9] | TGI [13] | TGI [19] | TGI [20] | TGI [24] | TGI [30] | TGI [32] | TGI [36] | TGI [40] | TGI [46] | TGI [47] | TGI [48] | TGI [50] | TGI [51] | TGI [54]
3540 nM: TGI [33]
156 nM: TGI [43]
> 11800 nM: TGI [53]
801 nM: TGI [16]
211 nM: TGI [49]
203 nM: TGI [44]
1600 nM: TGI [57]
157 nM: TGI [5]
8250 nM: TGI [17]
102 nM: TGI [56]
459 nM: TGI [8]
> 21000 nM: TGI [14]
285 nM: TGI [31]
119 nM: TGI [39]
> 12300 nM: TGI [10]

CCC1(O)CC2CC(=O)OC2C1O (configuration not stated)
25700 nM: TGI [7]
> 100000 nM: TGI [1] | TGI [2] | TGI [3] | TGI [4] | TGI [6] | TGI [8] | TGI [9] | TGI [10] | TGI [11] | TGI [13] | TGI [15] | TGI [16] | TGI [17] | TGI [18] | TGI [19] | TGI [20] | TGI [21] | TGI [58] | TGI [22] | TGI [23] | TGI [24] | TGI [25] | TGI [26] | TGI [59] | TGI [27] | TGI [28] | TGI [29] | TGI [30] | TGI [31] | TGI [32] | TGI [33] | TGI [34] | TGI [35] | TGI [36] | TGI [37] | TGI [38] | TGI [39] | TGI [40] | TGI [41] | TGI [42] | TGI [43] | TGI [44] | TGI [45] | TGI [46] | TGI [48] | TGI [49] | TGI [50] | TGI [51] | TGI [52] | TGI [53] | TGI [54] | TGI [55] | TGI [56] | TGI [57]
